In ChEMBL document CHEMBL2401670, “Synthesis and biological evaluation of rhodanine derivatives bearing a quinoline moiety as potent antimicrobial agents” (Bioorg Med Chem Lett, 2013):
Converted amounts (≈) assume the structure as drawn.

How the values were obtained:
Escherichia coli = test: Antibacterial activity against Escherichia coli CCARM 1356 after 24 hrs by broth microdilution method; format: functional; conditions: CCARM 1356, 24 h
Staphylococcus aureus [1] = test: Antibacterial activity against quinolone-resistant Staphylococcus aureus CCARM 3505 after 24 hrs by broth microdilution method; format: functional; conditions: CCARM 3505, 24 h
Staphylococcus aureus [2] = test: Antibacterial activity against Staphylococcus aureus KCTC 209 after 24 hrs by broth microdilution method; format: functional; conditions: KCTC 209, 24 h
Staphylococcus aureus [3] = test: Antibacterial activity against quinolone-resistant Staphylococcus aureus CCARM 3519 after 24 hrs by broth microdilution method; format: functional; conditions: CCARM 3519, 24 h
Staphylococcus aureus [4] = test: Antibacterial activity against Staphylococcus aureus RN4220 after 24 hrs by broth microdilution method; format: functional; conditions: RN4220, 24 h
Staphylococcus aureus [5] = test: Antibacterial activity against methicillin-resistant Staphylococcus aureus CCARM 3167 after 24 hrs by broth microdilution method; format: functional; conditions: CCARM 3167, 24 h
Staphylococcus aureus [6] = test: Antibacterial activity against methicillin-resistant Staphylococcus aureus CCARM 3506 after 24 hrs by broth microdilution method; format: functional; conditions: CCARM 3506, 24 h
Staphylococcus aureus [7] = test: Antibacterial activity against Staphylococcus aureus KCTC 503 after 24 hrs by broth microdilution method; format: functional; conditions: KCTC 503, 24 h
HeLa = test: Cytotoxicity against human HeLa cells after 48 hrs by MTT assay; format: cell-based
Staphylococcus aureus [8] = test: Ratio of gatifloxacin MIC to compound MIC for quinolone-resistant Staphylococcus aureus CCARM 3519; format: functional
Staphylococcus aureus [9] = test: Ratio of norfloxacin MIC to compound MIC for quinolone-resistant Staphylococcus aureus CCARM 3519; format: functional
Staphylococcus aureus [10] = test: Ratio of norfloxacin MIC to compound MIC for methicillin-resistant Staphylococcus aureus CCARM 3506; format: functional
Staphylococcus aureus [11] = test: Ratio of moxifloxacin MIC to compound MIC for quinolone-resistant Staphylococcus aureus CCARM 3505; format: functional
Staphylococcus aureus [12] = test: Ratio of norfloxacin MIC to compound MIC for methicillin-resistant Staphylococcus aureus CCARM 3167; format: functional
Staphylococcus aureus [13] = test: Ratio of norfloxacin MIC to compound MIC for quinolone-resistant Staphylococcus aureus CCARM 3505; format: functional
Staphylococcus aureus [14] = test: Ratio of gatifloxacin MIC to compound MIC for quinolone-resistant Staphylococcus aureus CCARM 3505; format: functional
Staphylococcus aureus [15] = test: Ratio of moxifloxacin MIC to compound MIC for quinolone-resistant Staphylococcus aureus CCARM 3519; format: functional

Row | Compound | MIC (Escherichia coli) | MIC (Staphylococcus aureus [1]) | MIC (Staphylococcus aureus [2]) | MIC (Staphylococcus aureus [3]) | MIC (Staphylococcus aureus [4]) | MIC (Staphylococcus aureus [5]) | MIC (Staphylococcus aureus [6]) | MIC (Staphylococcus aureus [7]) | IC50 (HeLa) | Ratio (Staphylococcus aureus [8]) | Ratio (Staphylococcus aureus [9]) | Ratio (Staphylococcus aureus [10]) | Ratio (Staphylococcus aureus [11]) | Ratio (Staphylococcus aureus [12]) | Ratio (Staphylococcus aureus [13]) | Ratio (Staphylococcus aureus [14]) | Ratio (Staphylococcus aureus [15])
1 | CCC(C)[C@@H](C(=O)O)N1C(=O)/C(=C/c2cc3cc(OCc4ccc(Cl)cc4)ccc3nc2Cl)SC1=S (stereo partly specified) | > 64 µg/mL | 2 µg/mL (≈ 3.56 µM) | 8 µg/mL (≈ 14.2 µM) | 2 µg/mL (≈ 3.56 µM) | 2 µg/mL (≈ 3.56 µM) | 1 µg/mL (≈ 1.78 µM) | 1 µg/mL (≈ 1.78 µM) | 4 µg/mL (≈ 7.12 µM) | – | – | – | – | – | – | – | – | –
2 | O=C(O)[C@H](Cc1ccccc1)N1C(=O)/C(=C/c2cc3cc(OCc4ccccc4Cl)ccc3nc2Cl)SC1=S | > 64 µg/mL | 2 µg/mL (≈ 3.36 µM) | 64 µg/mL (≈ 107 µM) | 2 µg/mL (≈ 3.36 µM) | 4 µg/mL (≈ 6.72 µM) | 2 µg/mL (≈ 3.36 µM) | 2 µg/mL (≈ 3.36 µM) | 8 µg/mL (≈ 13.4 µM) | – | – | – | – | – | – | – | – | –
3 | COc1c(N2C[C@@H]3CCCN[C@@H]3C2)c(F)cc2c(=O)c(C(=O)O)cn(C3CC3)c12 [MOXIFLOXACIN] | > 64 µg/mL | – | – | 4 µg/mL (≈ 9.96 µM) | 0.25 µg/mL (≈ 0.623 µM) | – | – | – | – | – | – | – | – | – | – | – | –
4 | O=C(O)[C@H](Cc1ccccc1)N1C(=O)/C(=C/c2cc3cc(OCc4cccc(Cl)c4)ccc3nc2Cl)SC1=S | > 64 µg/mL | 2 µg/mL (≈ 3.36 µM) | 64 µg/mL (≈ 107 µM) | 2 µg/mL (≈ 3.36 µM) | 2 µg/mL (≈ 3.36 µM) | 2 µg/mL (≈ 3.36 µM) | 2 µg/mL (≈ 3.36 µM) | 8 µg/mL (≈ 13.4 µM) | – | – | – | – | – | – | – | – | –
5 | CC(C)C[C@@H](C(=O)O)N1C(=O)/C(=C/c2cc3cc(OCc4cccc(Cl)c4)ccc3nc2Cl)SC1=S | > 64 µg/mL | 2 µg/mL (≈ 3.56 µM) | 4 µg/mL (≈ 7.12 µM) | 2 µg/mL (≈ 3.56 µM) | 2 µg/mL (≈ 3.56 µM) | 1 µg/mL (≈ 1.78 µM) | 2 µg/mL (≈ 3.56 µM) | 64 µg/mL (≈ 114 µM) | – | – | – | – | – | – | – | – | –
6 | CCC(C)[C@@H](C(=O)O)N1C(=O)/C(=C/c2cc3cc(OCc4ccc(C)cc4)ccc3nc2Cl)SC1=S (stereo partly specified) | > 64 µg/mL | 2 µg/mL (≈ 3.7 µM) | 4 µg/mL (≈ 7.39 µM) | 2 µg/mL (≈ 3.7 µM) | 2 µg/mL (≈ 3.7 µM) | 2 µg/mL (≈ 3.7 µM) | 2 µg/mL (≈ 3.7 µM) | 4 µg/mL (≈ 7.39 µM) | 9.09 µg/mL (≈ 16.8 µM) | – | – | – | – | – | – | – | –
7 | COc1c(N2CCNC(C)C2)c(F)cc2c(=O)c(C(=O)O)cn(C3CC3)c12 (stereo unspecified) [GATIFLOXACIN] | 16 µg/mL (≈ 42.6 µM) | 8 µg/mL (≈ 21.3 µM) | 2 µg/mL (≈ 5.33 µM) | 4 µg/mL (≈ 10.7 µM) | 0.25 µg/mL (≈ 0.666 µM) | 2 µg/mL (≈ 5.33 µM) | 1 µg/mL (≈ 2.66 µM) | 4 µg/mL (≈ 10.7 µM) | – | – | – | – | – | – | – | – | –
8 | CCC(C)[C@@H](C(=O)O)N1C(=O)/C(=C/c2cc3cc(OCc4ccccc4F)ccc3nc2Cl)SC1=S (stereo partly specified) | > 64 µg/mL | 2 µg/mL (≈ 3.67 µM) | 32 µg/mL (≈ 58.7 µM) | 2 µg/mL (≈ 3.67 µM) | 2 µg/mL (≈ 3.67 µM) | 2 µg/mL (≈ 3.67 µM) | 1 µg/mL (≈ 1.83 µM) | 4 µg/mL (≈ 7.34 µM) | – | – | – | – | – | – | – | – | –
9 | O=C(O)[C@H](Cc1ccccc1)N1C(=O)/C(=C/c2cc3cc(OCc4cccc(F)c4)ccc3nc2Cl)SC1=S | > 64 µg/mL | 1 µg/mL (≈ 1.73 µM) | 64 µg/mL (≈ 111 µM) | 2 µg/mL (≈ 3.45 µM) | 4 µg/mL (≈ 6.91 µM) | 2 µg/mL (≈ 3.45 µM) | 1 µg/mL (≈ 1.73 µM) | 4 µg/mL (≈ 6.91 µM) | – | – | – | – | – | – | – | – | –
10 | Cc1ccc(COc2ccc3nc(Cl)c(/C=C4\SC(=S)N([C@@H](Cc5ccccc5)C(=O)O)C4=O)cc3c2)cc1 | > 64 µg/mL | 1 µg/mL (≈ 1.74 µM) | 8 µg/mL (≈ 13.9 µM) | 1 µg/mL (≈ 1.74 µM) | 2 µg/mL (≈ 3.48 µM) | 1 µg/mL (≈ 1.74 µM) | 1 µg/mL (≈ 1.74 µM) | 8 µg/mL (≈ 13.9 µM) | 13.3 µg/mL (≈ 23.1 µM) | 4 | 4 | 4 | 4 | 4 | 4 | 4 | 4
11 | O=C(O)[C@H](Cc1ccccc1)N1C(=O)/C(=C/c2cc3cc(OCc4ccc(Cl)cc4)ccc3nc2Cl)SC1=S | > 64 µg/mL | 2 µg/mL (≈ 3.36 µM) | 8 µg/mL (≈ 13.4 µM) | 2 µg/mL (≈ 3.36 µM) | 4 µg/mL (≈ 6.72 µM) | 2 µg/mL (≈ 3.36 µM) | 2 µg/mL (≈ 3.36 µM) | 4 µg/mL (≈ 6.72 µM) | – | – | – | – | – | – | – | – | –
12 | CCC(C)[C@@H](C(=O)O)N1C(=O)/C(=C/c2cc3cc(OCc4ccccc4Cl)ccc3nc2Cl)SC1=S (stereo partly specified) | > 64 µg/mL | 2 µg/mL (≈ 3.56 µM) | 64 µg/mL (≈ 114 µM) | 2 µg/mL (≈ 3.56 µM) | 4 µg/mL (≈ 7.12 µM) | 2 µg/mL (≈ 3.56 µM) | 1 µg/mL (≈ 1.78 µM) | 8 µg/mL (≈ 14.2 µM) | – | – | – | – | – | – | – | – | –
